Data set [1] concerns S. aureus SA113Δica (ATCC 35556Δica::tet). Kind of data set: Biofilm formation by ica deletion mutant on polycarbonate surface. The conditions noted are these: 6 hrs. It is filed as cell-based, Staphylococcus aureus. How it is done: To quantify the amount of biofilm formed on polycarbonate surface, a 13-mm-diameter polycarbonate disc (Thermanox, Nalgene Nunc International, Rochester, N.Y., USA) was placed in a well of a 24-well microtiter plate, followed by the addition of 1 mL aliquot of the diluted bacterial culture. After incubation at 37° C. for a designated period of time, viable cells were washed off the surface of the polycarbonate disc with PBS and counted as described above, while the PBS-washed polycarbonate disc was subjected to crystal violet staining for biofilm quantification as described above.

The test system of the next data set is HepG2 cells. Kind of data set: Cell viability assay (MTT). It counts as cell-based, human. The conditions noted are these: concentrations below 50 μM, 24 hr treatment, 10% fetal calf serum. Here is the method: (§1) Human HepG2 cells (ATCC HB-8065) and 293T cells (ATCC CRL-11268) were cultured in Dulbecco's modified Eagle's medium (DMEM) supplemented with 10% (v/v) fetal calf serum. Human MRC-5 cells (ATCC CCL171) and HEp-2 cells (ATCC CCL-23) were cultured in Eagle's minimum essential medium (MEM) supplemented with 10% fetal calf serum. These four human cell lines were seeded into 24-well polystyrene tissue culture plates at a cell density of 1×10^5 cells/500 μL medium per well, respectively. After incubation at 37° C. for 24 hrs, β-PGG was added into each well in various amounts (0, 6.25, 12.5, 25 and 50 μM). After 24 hr treatment of β-PGG, toxicity of β-PGG to these human cell lines was determined using the 3-(4,5-dimethylthiazol-2-yl)-2,5-diphenyltetrazolium bromide (MTT) method (Xiangshu Piao et al. (2008), supra). Additionally, toxicity of β-PGG to the 293T cells was also determined in medium containing 0% and 2% fetal calf serum. Cells treated with DMSO were used as a negative control.

For another data set, the system named is MRC-5 cells. As to the kind of experiment: Cell viability assay (MTT). The conditions noted are these: concentrations below 50 μM, 24 hr treatment, 10% fetal calf serum. It is filed as cell-based, human. How it is done:
as §1

In the next data set the test system is 293T cells. Kind of data set: Cell viability assay (MTT). It is filed as cell-based, human. How it is done: as §1
The subject of another data set is HEp-2 cells. As to the kind of experiment: Cell viability assay (MTT). It counts as cell-based, human. The conditions noted are these: concentrations below 50 μM, 24 hr treatment, 10% fetal calf serum. Here is the method:
as §1

In data set [2] the test system is PIA production by clinical isolates of S. aureus (SA13, SA288, SA44, SA 130). Kind of data set: Quantification of PIA in four clinical isolates. It counts as cell-based, Staphylococcus aureus. The conditions noted are these: 12.5 μM and 25 μM, 6 hrs. How it is done:
The amount of PIA was determined by chemiluminescence detection using horseradish peroxidase-conjugated streptavidin (Pierce) according to a method described elsewhere (S. Schlag et al. (2007), supra). Briefly, a tested bacterial strain prepared in TSBg broth was added with β-PGG at a designated concentration and then cultured in a 9 cm petri dish for 6 hrs. The bacterial cells grown in the petri dish were collected by scraping, followed by centrifugation, and the resultant cell pellets were redissolved by addition of 3 mL of 0.5 M EDTA (pH 8.0) for every gram (wet weight) of cell pellet, followed by boiling at 100° C. for 10 min. After centrifugation at 10,000 g for 30 min, the resultant supernatant was 100-fold diluted. An 80 μL aliquot of the diluted supernatant was incubated with 20 μL of proteinase K (10 mg/mL, in dH2O) at 37° C. for 2 hrs, followed by blotting onto a PVDF membrane (Millipore) using a 96-well dot-blot apparatus. […] Thereafter, the membrane was detected by autoradiography using X-ray film, and the intensity of each spot formed on the X-ray film was quantified using a densitometer (LAS-3000, Fujifilm). The relative PIA amount produced by the tested bacterial strain was determined based on the detected intensity, with the amount of PIA from bacterial cells without PGG treatment being set as 100%. […]

The test system of data set [3] is polysaccharide intercellular adhesion (PIA) production by S. aureus SA113. Kind of data set: Quantification of PIA by chemiluminescence (WGA-biotin/HRP-streptavidin). It is filed as cell-based, Staphylococcus aureus. The conditions noted are these: 6 hrs; for decrease of the amount of PIA formed on the cell surface: densitometer, untreated = 100%. Here is the method:
The amount of PIA was determined by chemiluminescence detection using horseradish peroxidase-conjugated streptavidin (Pierce) according to a method described elsewhere (S. Schlag et al. (2007), supra). Briefly, a tested bacterial strain prepared in TSBg broth was added with β-PGG at a designated concentration and then cultured in a 9 cm petri dish for 6 hrs. The bacterial cells grown in the petri dish were collected by scraping, followed by centrifugation, and the resultant cell pellets were redissolved by addition of 3 mL of 0.5 M EDTA (pH 8.0) for every gram (wet weight) of cell pellet, followed by boiling at 100° C. for 10 min. After centrifugation at 10,000 g for 30 min, the resultant supernatant was 100-fold diluted. An 80 μL aliquot of the diluted supernatant was incubated with 20 μL of proteinase K (10 mg/mL, in dH2O) at 37° C. for 2 hrs, followed by blotting onto a PVDF membrane (Millipore) using a 96-well dot-blot apparatus. After blotting, the membrane was dried and soaked in a first blocking buffer (containing 3% bovine serum albumin (BSA) and 0.05% Tween-20 in PBS), followed by incubation at room temperature for 1 hr in the first blocking buffer containing 0.8 μg/mL wheat germ agglutinin conjugated with biotin (WGA-biotin, Sigma-Aldrich). After sequentially washing with the first blocking buffer and a second blocking buffer (containing 1% BSA and 0.05% Tween-20 in PBS), the membrane was incubated with horseradish peroxidase-conjugated streptavidin (Pierce) for 30 min, and washed 4 times with the first blocking buffer, followed by incubation with 1 mL of a substrate reagent (Luminol/Enhancer solution and Stable Peroxide solution, Pierce) at room temperature for 5 min. Thereafter, the membrane was detected by autoradiography using X-ray film, and the intensity of each spot formed on the X-ray film was quantified using a densitometer (LAS-3000, Fujifilm). The relative PIA amount produced by the tested bacterial strain was determined based on the detected intensity, with the amount of PIA from bacterial cells without PGG treatment being set as 100%.
To detect PIA in culture medium, the medium was concentrated using an Amicon-Ultra4 centrifuge filter (Millipore, Billerica, Mass., USA) prior to extraction.
Similar experiments were performed using four clinical isolates of S. aureus, namely MSSA strains SA13 and SA288, and MRSA strains SA44 and SA 130.

The test system of a further data set is S. aureus SA113. Kind of data set: Fluorescence microscopy of adhered cells after Syto 9 staining. It is filed as cell-based, Staphylococcus aureus. The conditions noted are these: 6.25 μM and 12.5 μM, 60 min. How it is done: Meanwhile, cells adhering to the polystyrene or polycarbonate surfaces were washed off with PBS at 60 min after seeding and stained with Syto 9 (Invitrogen), a green florescence dye that stains nucleic acids, followed by observation under a fluorescence microscope.
The cells adhering to the polystyrene surface and polycarbonate surface after treatment with 0 μM, 6.25 μM and 12.5 μM β-PGG for 60 min were also examined under a fluorescent microscope after Syto 9 staining.

Data set [4] has as its system human epithelial and fibroblast cells. As to the kind of experiment: Toxicity to human cells (summary statement). It is filed as cell-based. The conditions noted are these: concentrations below 50 μM. How it is done: as §1

Entries after “also recorded” stand apart in the source; their conditions may differ.

`O=C(OC[C@H]1O[C@@H](OC(=O)c2cc(O)c(O)c(O)c2)[C@H](OC(=O)c2cc(O)c(O)c(O)c2)[C@@H](OC(=O)c2cc(O)c(O)c(O)c2)[C@@H]1OC(=O)c1cc(O)c(O)c(O)c1)c1cc(O)c(O)c(O)c1` [β-PGG, 1,2,3,4,6-penta-O-galloyl-β-D-glucopyranose]: the “decrease of the amount of biofilm, polycarbonate surface” value in data set [1] (3.13 μM) came to 67%; in [1] (12.5 μM) it was 96%. Besides, the “cell viability (MTT)” value in the data set on HepG2 cells is on record as “did not affect the viability”; in the data set on MRC-5 cells it was “did not affect the viability”; in the data set on 293T cells (concentrations below 50 μM, 24 hr treatment, 10% fetal calf serum) it was “did not affect the viability”; in the data set with HEp-2 cells it was “did not affect the viability”. In the data set with 293T cells (medium with 2% or 0% fetal calf serum), the “influence of serum concentration on toxicity” value is given as “no influence upon the toxicity”. Besides, the “PIA production by four clinical isolates” value in data set [2] is reported as “inhibited PIA production”. The “decrease of the amount of PIA formed on the cell surface” value is recorded as 7% in [3] (3.13 μM), 58% in data set [3] (12.5 μM) and 87% in data set [3] (50 μM). Also, the “PIA production (extracted from bacterial cells)” value in data set [3] (3.13, 12.5 and 50 μM) was “PIA production was inhibited”. Also, the “PIA released into the culture medium” value in data set [3] (3.13, 12.5 and 50 μM) is “decreased after β-PGG treatment in a dose-dependent manner”. Besides, the “cells attached to polystyrene and polycarbonate surfaces (Syto 9)” value in the data set with S. aureus SA113 is on record as “significantly reduced the number of cells attached”. Moreover, in data set [4], the “toxicity to human epithelial and fibroblast cells” value is “lacks toxicity; also recorded: not toxic”.

The record behind these values is US9181290B2, “Inhibition of biofilm formation by 1,2,3,4,6-penta-O-galloyl-D-glucopyranose” (CHANG GUNG UNIVERSITY, priority 2011, dated 2015).
